Experimental findings from patent publication US20240360082A1, “SUBSTITUTED PYRIDONE COMPOUNDS USEFUL TO TREAT ORTH[…]” (priority 2021, published 2024) are described below.

The structures appear in SMILES notation.

Chain of influenza A virus minigenome (PB2, PB1, PA, NP proteins) (P04665 whole entry): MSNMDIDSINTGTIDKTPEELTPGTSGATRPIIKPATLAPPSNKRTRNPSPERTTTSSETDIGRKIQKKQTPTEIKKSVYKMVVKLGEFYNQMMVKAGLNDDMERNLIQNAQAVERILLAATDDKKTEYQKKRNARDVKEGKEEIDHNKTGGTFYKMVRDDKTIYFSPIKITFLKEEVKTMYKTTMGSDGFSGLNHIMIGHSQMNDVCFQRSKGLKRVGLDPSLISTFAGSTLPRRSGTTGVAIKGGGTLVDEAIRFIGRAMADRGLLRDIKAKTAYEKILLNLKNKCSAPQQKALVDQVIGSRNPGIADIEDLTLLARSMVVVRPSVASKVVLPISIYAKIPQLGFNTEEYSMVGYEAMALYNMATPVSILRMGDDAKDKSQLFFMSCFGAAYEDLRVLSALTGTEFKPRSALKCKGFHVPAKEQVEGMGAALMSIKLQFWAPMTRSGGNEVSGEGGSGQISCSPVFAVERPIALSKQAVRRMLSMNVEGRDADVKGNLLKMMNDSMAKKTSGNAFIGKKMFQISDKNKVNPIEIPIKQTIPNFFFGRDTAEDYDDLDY

This assay concerns the target influenza A virus minigenome (PB2, PB1, PA, NP proteins) (UniProt P04665). In kind it is cell-based. As to conditions: read-out: RNP_Hubei B.
`NC(=O)c1cc(-c2ccc(CN3CCCOCC3)cc2)c(C(F)(F)F)[nH]c1=O` [Example 34, 5-(4-((1,4-oxazepan-4-yl)methyl)phenyl)-2-oxo-6-(trifluoromethyl)-1,2-dihydropyridine-3-carboxamide]: the IC50 fell in the range of 25 to 50 µM.

For the compound `C[C@@H]1CN(Cc2ccc(-c3cc(C(N)=O)c(=O)[nH]c3C(F)(F)F)cc2)C[C@H](C)O1` [Example 35, 5-(4-(((2S,6R)-2,6-dimethylmorpholino)methyl)phenyl)-2-oxo-6-(trifluoromethyl)-1,2-dihydropyridine-3-carboxamide], the IC50 fell in the range of 25 to 50 µM.

Take `NC(=O)c1cc(-c2ccc(CN3CCOCC3)c(F)c2)c(C(F)(F)F)[nH]c1=O` [Example 36, 5-(3-fluoro-4-(morpholinomethyl)phenyl)-2-oxo-6-(trifluoromethyl)-1,2-dihydropyridine-3-carboxamide]: the IC50 was in the range of 10 to 25 µM.

As for `CC(O)c1ccc(-c2cc(C(N)=O)c(=O)[nH]c2C(F)(F)F)cc1` (stereo not shown) [Example 37, 5-(4-(1-hydroxyethyl)phenyl)-2-oxo-6-(trifluoromethyl)-1,2-dihydropyridine-3-carboxamide], the IC50 was in the range of 25 to 50 µM.

As for `COC1CN(Cc2ccc(-c3cc(C(N)=O)c(=O)[nH]c3C(F)(F)F)cc2)C1` [Example 38, 5-(4-((3-methoxyazetidin-1-yl)methyl)phenyl)-2-oxo-6-(trifluoromethyl)-1,2-dihydropyridine-3-carboxamide], the IC50 was in the range of 25 to 50 µM.

Consider `CC1(C)CN(Cc2ccc(-c3cc(C(N)=O)c(=O)[nH]c3C(F)(F)F)cc2)CCO1` [Example 39, 5-(4-((2,2-dimethylmorpholino)methyl)phenyl)-2-oxo-6-(trifluoromethyl)-1,2-dihydropyridine-3-carboxamide], for which the IC50 fell in the range of 10 to 25 µM.

Consider `CO[C@H]1CCN(Cc2ccc(-c3cc(C(N)=O)c(=O)[nH]c3C(F)(F)F)cc2)C1` [Example 40, (S)-5-(4-((3-methoxypyrrolidin-1-yl)methyl)phenyl)-2-oxo-6-(trifluoromethyl)-1,2-dihydropyridine-3-carboxamide], for which the IC50 is 25 to 50 µM.

As to `CO[C@@H]1CCN(Cc2ccc(-c3cc(C(N)=O)c(=O)[nH]c3C(F)(F)F)cc2)C1` [Example 41, (R)-5-(4-((3-methoxypyrrolidin-1-yl)methyl)phenyl)-2-oxo-6-(trifluoromethyl)-1,2-dihydropyridine-3-carboxamide], the IC50 lay within 25 to 50 µM.

In the case of `NC(=O)c1cc(-c2ccc(CN3CCOCC3)cc2F)c(C(F)(F)F)[nH]c1=O` [Example 42, 5-(2-fluoro-4-(morpholinomethyl)phenyl)-2-oxo-6-(trifluoromethyl)-1,2-dihydropyridine-3-carboxamide], the IC50 was 10 to 25 µM.

`Cc1cc(-c2cc(C(N)=O)c(=O)[nH]c2C(F)(F)F)ccc1CN1CCOCC1` [Example 43, 5-(3-methyl-4-(morpholinomethyl)phenyl)-2-oxo-6-(trifluoromethyl)-1,2-dihydropyridine-3-carboxamide]: the IC50 was 1 to 5 µM.

Regarding `NC(=O)c1cc(-c2ccc(CN3CCCCC3)cc2)c(C(F)(F)F)[nH]c1=O` [Example 44, 2-oxo-5-(4-(piperidin-1-ylmethyl)phenyl)-6-(trifluoromethyl)-1,2-dihydropyridine-3-carboxamide], the IC50 was in the range of 25 to 50 µM.

Consider `CN(C)Cc1ccc(-c2cc(C(N)=O)c(=O)[nH]c2C(F)(F)F)cc1` [Example 45, 5-(4-((dimethylamino)methyl)phenyl)-2-oxo-6-(trifluoromethyl)-1,2-dihydropyridine-3-carboxamide], for which the IC50 was in the range of 25 to 50 µM.

Take `NC(=O)c1cc(-c2ccc(CN3CCOCC3=O)cc2)c(C(F)(F)F)[nH]c1=O` [Example 46, 2-oxo-5-(4-((3-oxomorpholino)methyl)phenyl)-6-(trifluoromethyl)-1,2-dihydropyridine-3-carboxamide]: the IC50 was in the range of 25 to 50 µM.

Turning to `NC(=O)c1cc(-c2ccc(CN3CCS(=O)(=O)CC3)cc2)c(C(F)(F)F)[nH]c1=O` [Example 47, 5-(4-((1,1-dioxidothiomorpholino)methyl)phenyl)-2-oxo-6-(trifluoromethyl)-1,2-dihydropyridine-3-carboxamide], the IC50 lay in the range of 25 to 50 µM.

In the case of `NC(=O)c1cc(-c2ccc(C(c3cnco3)N3CCOCC3)cc2)c(C(F)(F)F)[nH]c1=O` (stereo not shown) [Example 48, 5-(4-(morpholino(oxazol-5-yl)methyl)phenyl)-2-oxo-6-(trifluoromethyl)-1,2-dihydropyridine-3-carboxamide], the IC50 was in the range of 25 to 50 µM.

On to `CS(=O)(=O)NCc1ccc(-c2cc(C(N)=O)c(=O)[nH]c2C(F)(F)F)cc1` [Example 49, 5-(4-(methylsulfonamidomethyl)phenyl)-2-oxo-6-(trifluoromethyl)-1,2-dihydropyridine-3-carboxamide], for which the IC50 fell in the range of 25 to 50 µM.

For `NC(=O)c1cc(-c2ccc(CC3(O)CCOCC3)cc2)c(C(F)(F)F)[nH]c1=O` [Example 50, 5-(4-((4-hydroxytetrahydro-2H-pyran-4-yl)methyl)phenyl)-2-oxo-6-(trifluoromethyl)-1,2-dihydropyridine-3-carboxamide], the IC50 was 25 to 50 µM.

In the case of `NC(=O)c1cc(-c2ccc(CC3(F)CCOCC3)cc2)c(C(F)(F)F)[nH]c1=O` [Example 51, 5-(4-((4-fluorotetrahydro-2H-pyran-4-yl)methyl)phenyl)-2-oxo-6-(trifluoromethyl)-1,2-dihydropyridine-3-carboxamide], the IC50 lay within 5 to 10 µM.

On to `NC(=O)c1cc(-c2ccc(OCc3cccc([N+](=O)[O-])c3)cc2)c(C(F)(F)F)[nH]c1=O` [Example 54, 5-(4-((3-nitrobenzyl)oxy)phenyl)-2-oxo-6-(trifluoromethyl)-1,2-dihydropyridine-3-carboxamide], for which the IC50 is 10 to 25 µM.

With `CC(=O)N1CCC(COc2ccc(-c3cc(C(N)=O)c(=O)[nH]c3C(F)(F)F)cc2)CC1` [Example 55, 5-(4-((1-acetylpiperidin-4-yl)methoxy)phenyl)-2-oxo-6-(trifluoromethyl)-1,2-dihydropyridine-3-carboxamide], the IC50 was 25 to 50 µM.

Take `NC(=O)c1cc(-c2ccc(OCC3CCOCC3)cc2)c(C(F)(F)F)[nH]c1=O` [Example 56, 2-oxo-5-(4-((tetrahydro-2H-pyran-4-yl)methoxy)phenyl)-6-(trifluoromethyl)-1,2-dihydropyridine-3-carboxamide]: the IC50 was in the range of 25 to 50 µM.

`NC(=O)c1cc(-c2ccc(OCc3cccc(N)c3)cc2)c(C(F)(F)F)[nH]c1=O` [Example 57, 5-(4-((3-aminobenzyl)oxy)phenyl)-2-oxo-6-(trifluoromethyl)-1,2-dihydropyridine-3-carboxamide]: the IC50 is 5 to 10 µM.

`NC(=O)c1cc(-c2ccc(OCC3CCCCC3)cc2)c(C(F)(F)F)[nH]c1=O` [Example 58, 5-(4-(cyclohexylmethoxy)phenyl)-2-oxo-6-(trifluoromethyl)-1,2-dihydropyridine-3-carboxamide]: the IC50 lay within 5 to 10 µM.

Regarding `COc1ccc(COc2ccc(-c3cc(C(N)=O)c(=O)[nH]c3C(F)(F)F)cc2)cc1` [Example 59, 5-(4-((4-methoxybenzyl)oxy)phenyl)-2-oxo-6-(trifluoromethyl)-1,2-dihydropyridine-3-carboxamide], the IC50 was 5 to 10 µM.

On to `CN(C)C(=O)c1ccc(COc2ccc(-c3cc(C(N)=O)c(=O)[nH]c3C(F)(F)F)cc2)cc1` [Example 60, 5-(4-((4-(dimethylcarbamoyl)benzyl)oxy)phenyl)-2-oxo-6-(trifluoromethyl)-1,2-dihydropyridine-3-carboxamide], for which the IC50 fell in the range of 25 to 50 µM.

Take `CCCNc1cccc(COc2ccc(-c3cc(C(N)=O)c(=O)[nH]c3C(F)(F)F)cc2)c1` [Example 66, 2-oxo-5-(4-((3-(propylamino)benzyl)oxy)phenyl)-6-(trifluoromethyl)-1,2-dihydropyridine-3-carboxamide]: the IC50 was 0.1 to 1 µM.

On to `NC(=O)c1cc(-c2ccc(OCc3ccncc3)cc2)c(C(F)(F)F)[nH]c1=O` [Example 70, 2-oxo-5-(4-(pyridin-4-ylmethoxy)phenyl)-6-(trifluoromethyl)-1,2-dihydropyridine-3-carboxamide], for which the IC50 lay in the range of 25 to 50 µM.

For the compound `NC(=O)c1cc(-c2ccc(OCc3ccc4nonc4c3)cc2)c(C(F)(F)F)[nH]c1=O` [Example 71, 5-(4-(benzo[c][1,2,5]oxadiazol-5-ylmethoxy)phenyl)-2-oxo-6-(trifluoromethyl)-1,2-dihydropyridine-3-carboxamide], the IC50 lay within 25 to 50 µM.

Turning to `NC(=O)c1cc(-c2ccc(OCc3cccnc3)cc2)c(C(F)(F)F)[nH]c1=O` [Example 72, 2-oxo-5-(4-(pyridin-3-ylmethoxy)phenyl)-6-(trifluoromethyl)-1,2-dihydropyridine-3-carboxamide], the IC50 was in the range of 25 to 50 µM.

On to `NC(=O)c1cc(-c2ccc(OCc3ccccn3)cc2)c(C(F)(F)F)[nH]c1=O` [Example 73, 2-oxo-5-(4-(pyridin-2-ylmethoxy)phenyl)-6-(trifluoromethyl)-1,2-dihydropyridine-3-carboxamide], for which the IC50 was in the range of 25 to 50 µM.

As for `NC(=O)c1cc(-c2ccc(OCc3cccc4nonc34)cc2)c(C(F)(F)F)[nH]c1=O` [Example 74, 5-(4-(benzo[c][1,2,5]oxadiazol-4-ylmethoxy)phenyl)-2-oxo-6-(trifluoromethyl)-1,2-dihydropyridine-3-carboxamide], the IC50 lay within 10 to 25 µM.

Turning to `CS(=O)(=O)c1cccc(COc2ccc(-c3cc(C(N)=O)c(=O)[nH]c3C(F)(F)F)cc2)c1` [Example 75, 5-(4-((3-(methylsulfonyl)benzyl)oxy)phenyl)-2-oxo-6-(trifluoromethyl)-1,2-dihydropyridine-3-carboxamide], the IC50 is 25 to 50 µM.

Consider `NC(=O)c1cc(-c2ccc(OCc3ccccc3[N+](=O)[O-])cc2)c(C(F)(F)F)[nH]c1=O` [Example 76, 5-(4-((2-nitrobenzyl)oxy)phenyl)-2-oxo-6-(trifluoromethyl)-1,2-dihydropyridine-3-carboxamide], for which the IC50 was 10 to 25 µM.

Take `N#Cc1ccc(COc2ccc(-c3cc(C(N)=O)c(=O)[nH]c3C(F)(F)F)cc2)cc1` [Example 77, 5-(4-((4-cyanobenzyl)oxy)phenyl)-2-oxo-6-(trifluoromethyl)-1,2-dihydropyridine-3-carboxamide]: the IC50 lay in the range of 10 to 25 µM.
